According to article PMC11167047 (Cell Death Discovery, 2024):

Experiments:
Test in all cases: kinome screen (33PanQinase)
Format in all cases: biochemical
MST2 = biological target: T1, MST2 (Homo sapiens, UniProt Q13188)
T1 construct: purchased Reaction Biology Europe GmbH (formerly ProQinase)
T1 sequence (Q13188 1-491): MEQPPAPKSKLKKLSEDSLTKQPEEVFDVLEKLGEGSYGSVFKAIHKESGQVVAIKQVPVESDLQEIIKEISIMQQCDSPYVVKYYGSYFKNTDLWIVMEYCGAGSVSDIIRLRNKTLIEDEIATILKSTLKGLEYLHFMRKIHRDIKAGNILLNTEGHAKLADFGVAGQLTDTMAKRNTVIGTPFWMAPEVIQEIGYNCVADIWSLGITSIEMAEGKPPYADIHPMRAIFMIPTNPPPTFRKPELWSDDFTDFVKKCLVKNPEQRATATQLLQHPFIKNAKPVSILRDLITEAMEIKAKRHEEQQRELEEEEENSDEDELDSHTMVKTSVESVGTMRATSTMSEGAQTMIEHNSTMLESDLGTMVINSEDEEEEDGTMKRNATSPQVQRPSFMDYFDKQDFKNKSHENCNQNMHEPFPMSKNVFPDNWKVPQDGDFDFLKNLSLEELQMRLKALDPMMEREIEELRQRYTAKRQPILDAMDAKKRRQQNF
Protocol: (§1) The Kinome Screening was performed by Reaction Biology Europe GmbH (http://reactionbiology.com; Freiburg i. Br., Germany).

PKCΔ = biological target: T2, PKCΔ (Homo sapiens, UniProt Q05655)
T2 construct: purchased Reaction Biology Europe GmbH (formerly ProQinase)
T2 sequence (Q05655 whole entry, stated change not applied): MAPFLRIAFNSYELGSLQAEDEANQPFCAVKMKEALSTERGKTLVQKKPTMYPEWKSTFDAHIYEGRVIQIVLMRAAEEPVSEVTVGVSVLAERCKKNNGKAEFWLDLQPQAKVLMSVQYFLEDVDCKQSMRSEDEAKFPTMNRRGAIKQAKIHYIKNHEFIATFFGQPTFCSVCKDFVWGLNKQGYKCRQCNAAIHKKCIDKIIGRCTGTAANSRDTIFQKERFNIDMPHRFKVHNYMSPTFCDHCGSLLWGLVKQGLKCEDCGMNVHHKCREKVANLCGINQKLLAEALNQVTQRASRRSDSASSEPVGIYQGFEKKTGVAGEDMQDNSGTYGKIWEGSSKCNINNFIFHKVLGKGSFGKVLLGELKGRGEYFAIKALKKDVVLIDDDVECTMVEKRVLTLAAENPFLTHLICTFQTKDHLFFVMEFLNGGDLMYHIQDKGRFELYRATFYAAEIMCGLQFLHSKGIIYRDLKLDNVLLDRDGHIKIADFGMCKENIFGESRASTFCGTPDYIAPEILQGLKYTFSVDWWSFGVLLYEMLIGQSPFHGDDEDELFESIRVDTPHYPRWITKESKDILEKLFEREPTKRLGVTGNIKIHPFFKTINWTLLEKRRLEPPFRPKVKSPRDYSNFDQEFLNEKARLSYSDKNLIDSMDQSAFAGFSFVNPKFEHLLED
Protocol: as §1

CDK1/CycE1 = biological target: T3, CDK1/CycE1 (Homo sapiens, UniProt P06493)
T3 construct: purchased Reaction Biology Europe GmbH (formerly ProQinase)
T3 sequence (P06493 whole entry): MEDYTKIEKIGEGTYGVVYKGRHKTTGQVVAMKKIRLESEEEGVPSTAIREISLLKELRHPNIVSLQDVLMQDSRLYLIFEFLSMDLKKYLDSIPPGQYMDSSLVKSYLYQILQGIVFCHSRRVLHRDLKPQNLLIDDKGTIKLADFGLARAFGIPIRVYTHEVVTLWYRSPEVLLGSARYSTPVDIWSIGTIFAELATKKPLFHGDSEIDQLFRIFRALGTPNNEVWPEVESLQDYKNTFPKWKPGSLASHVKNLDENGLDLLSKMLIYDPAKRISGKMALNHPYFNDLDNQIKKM
T3 sequence (P24864 whole entry partner): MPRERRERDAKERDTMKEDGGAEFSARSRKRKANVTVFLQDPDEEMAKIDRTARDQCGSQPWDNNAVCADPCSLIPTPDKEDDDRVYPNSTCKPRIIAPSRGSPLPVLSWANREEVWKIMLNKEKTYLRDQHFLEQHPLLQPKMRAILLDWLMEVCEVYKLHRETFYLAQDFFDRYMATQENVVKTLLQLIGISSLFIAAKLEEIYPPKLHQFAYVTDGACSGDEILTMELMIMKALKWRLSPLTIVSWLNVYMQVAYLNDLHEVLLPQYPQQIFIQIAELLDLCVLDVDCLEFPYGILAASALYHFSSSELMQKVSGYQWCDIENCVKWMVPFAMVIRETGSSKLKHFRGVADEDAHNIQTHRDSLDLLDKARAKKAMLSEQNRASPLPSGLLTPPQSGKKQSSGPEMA
Protocol: as §1

PAK2 = biological target: T4, PAK2 (Homo sapiens, UniProt Q13177)
T4 construct: purchased Reaction Biology Europe GmbH (formerly ProQinase)
T4 sequence (Q13177 whole entry): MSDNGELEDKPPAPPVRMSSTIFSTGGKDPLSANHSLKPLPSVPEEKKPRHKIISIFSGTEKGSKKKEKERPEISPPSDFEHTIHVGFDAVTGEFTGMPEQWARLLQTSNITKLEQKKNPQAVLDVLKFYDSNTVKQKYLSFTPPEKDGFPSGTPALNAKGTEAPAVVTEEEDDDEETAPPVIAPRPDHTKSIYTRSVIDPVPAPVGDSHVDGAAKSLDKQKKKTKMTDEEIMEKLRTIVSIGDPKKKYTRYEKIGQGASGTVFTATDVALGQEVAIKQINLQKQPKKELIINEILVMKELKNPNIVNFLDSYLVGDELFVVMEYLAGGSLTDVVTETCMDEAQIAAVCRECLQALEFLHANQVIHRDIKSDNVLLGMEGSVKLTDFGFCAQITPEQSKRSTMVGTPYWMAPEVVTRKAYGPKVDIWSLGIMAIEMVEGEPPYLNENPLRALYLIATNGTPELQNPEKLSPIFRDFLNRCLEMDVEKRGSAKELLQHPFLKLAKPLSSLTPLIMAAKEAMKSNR
Protocol: as §1

LIMK1 = biological target: T5, LIMK1 (Homo sapiens, UniProt P53667)
T5 construct: purchased Reaction Biology Europe GmbH (formerly ProQinase)
T5 sequence (P53667 whole entry): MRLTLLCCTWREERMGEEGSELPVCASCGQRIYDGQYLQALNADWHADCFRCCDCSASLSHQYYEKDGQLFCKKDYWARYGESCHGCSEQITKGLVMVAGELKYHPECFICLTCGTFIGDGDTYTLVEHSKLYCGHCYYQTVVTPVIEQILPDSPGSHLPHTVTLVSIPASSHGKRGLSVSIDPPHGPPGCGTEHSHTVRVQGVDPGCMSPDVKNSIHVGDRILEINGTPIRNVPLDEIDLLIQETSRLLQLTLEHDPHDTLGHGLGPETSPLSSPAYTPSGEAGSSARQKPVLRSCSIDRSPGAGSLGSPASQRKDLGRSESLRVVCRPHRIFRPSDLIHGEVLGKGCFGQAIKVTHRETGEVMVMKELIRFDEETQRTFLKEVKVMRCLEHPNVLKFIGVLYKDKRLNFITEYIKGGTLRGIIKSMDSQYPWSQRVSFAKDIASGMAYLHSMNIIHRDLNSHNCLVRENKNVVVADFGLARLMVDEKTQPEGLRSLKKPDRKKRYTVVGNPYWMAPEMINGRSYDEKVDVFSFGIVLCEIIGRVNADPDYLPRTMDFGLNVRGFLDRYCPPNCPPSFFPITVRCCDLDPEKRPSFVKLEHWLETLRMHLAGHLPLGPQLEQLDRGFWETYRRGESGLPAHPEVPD
Protocol: as §1

PKCη = biological target: T6, PKCη (Homo sapiens, UniProt P24723)
T6 construct: purchased Reaction Biology Europe GmbH (formerly ProQinase)
T6 sequence (P24723 whole entry): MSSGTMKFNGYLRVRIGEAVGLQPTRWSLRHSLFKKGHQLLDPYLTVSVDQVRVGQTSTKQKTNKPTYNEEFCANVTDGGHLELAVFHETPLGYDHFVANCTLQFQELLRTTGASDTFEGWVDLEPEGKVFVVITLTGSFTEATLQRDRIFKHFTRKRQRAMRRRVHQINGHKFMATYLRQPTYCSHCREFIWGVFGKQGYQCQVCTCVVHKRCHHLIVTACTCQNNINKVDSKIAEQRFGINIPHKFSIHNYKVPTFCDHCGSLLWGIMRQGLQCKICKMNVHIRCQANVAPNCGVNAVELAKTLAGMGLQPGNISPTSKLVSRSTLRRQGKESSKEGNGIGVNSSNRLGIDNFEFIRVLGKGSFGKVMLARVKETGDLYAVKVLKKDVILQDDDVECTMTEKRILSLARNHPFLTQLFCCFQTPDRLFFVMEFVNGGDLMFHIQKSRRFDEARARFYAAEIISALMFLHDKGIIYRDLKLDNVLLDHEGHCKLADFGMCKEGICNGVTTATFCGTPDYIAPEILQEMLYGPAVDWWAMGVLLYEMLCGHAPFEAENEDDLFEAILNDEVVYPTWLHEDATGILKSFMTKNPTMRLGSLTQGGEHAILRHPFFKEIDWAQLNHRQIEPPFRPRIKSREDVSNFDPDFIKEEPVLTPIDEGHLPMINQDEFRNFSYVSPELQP
Protocol: as §1

SNARK = biological target: T7, SNARK (Homo sapiens, UniProt Q9H093)
T7 construct: purchased Reaction Biology Europe GmbH (formerly ProQinase)
T7 sequence (Q9H093 1-628): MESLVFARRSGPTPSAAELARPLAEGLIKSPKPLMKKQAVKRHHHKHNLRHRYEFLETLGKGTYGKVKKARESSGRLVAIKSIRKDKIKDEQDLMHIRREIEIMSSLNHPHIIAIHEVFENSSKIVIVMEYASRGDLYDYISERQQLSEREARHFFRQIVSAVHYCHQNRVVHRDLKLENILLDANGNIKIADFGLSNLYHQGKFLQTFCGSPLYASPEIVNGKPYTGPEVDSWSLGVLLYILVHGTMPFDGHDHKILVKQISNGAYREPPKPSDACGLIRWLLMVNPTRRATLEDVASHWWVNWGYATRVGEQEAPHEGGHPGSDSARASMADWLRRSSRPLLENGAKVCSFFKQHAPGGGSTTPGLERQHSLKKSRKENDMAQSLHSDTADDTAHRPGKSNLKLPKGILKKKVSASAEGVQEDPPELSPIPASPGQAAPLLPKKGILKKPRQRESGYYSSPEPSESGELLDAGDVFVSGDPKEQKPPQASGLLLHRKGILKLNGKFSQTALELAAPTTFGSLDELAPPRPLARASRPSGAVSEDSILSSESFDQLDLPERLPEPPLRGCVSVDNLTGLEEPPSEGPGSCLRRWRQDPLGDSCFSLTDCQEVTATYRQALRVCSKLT
Protocol: as §1

DMPK = biological target: T8, DMPK (Homo sapiens, UniProt Q09013)
T8 construct: purchased Reaction Biology Europe GmbH (formerly ProQinase)
T8 sequence (Q09013 1-629): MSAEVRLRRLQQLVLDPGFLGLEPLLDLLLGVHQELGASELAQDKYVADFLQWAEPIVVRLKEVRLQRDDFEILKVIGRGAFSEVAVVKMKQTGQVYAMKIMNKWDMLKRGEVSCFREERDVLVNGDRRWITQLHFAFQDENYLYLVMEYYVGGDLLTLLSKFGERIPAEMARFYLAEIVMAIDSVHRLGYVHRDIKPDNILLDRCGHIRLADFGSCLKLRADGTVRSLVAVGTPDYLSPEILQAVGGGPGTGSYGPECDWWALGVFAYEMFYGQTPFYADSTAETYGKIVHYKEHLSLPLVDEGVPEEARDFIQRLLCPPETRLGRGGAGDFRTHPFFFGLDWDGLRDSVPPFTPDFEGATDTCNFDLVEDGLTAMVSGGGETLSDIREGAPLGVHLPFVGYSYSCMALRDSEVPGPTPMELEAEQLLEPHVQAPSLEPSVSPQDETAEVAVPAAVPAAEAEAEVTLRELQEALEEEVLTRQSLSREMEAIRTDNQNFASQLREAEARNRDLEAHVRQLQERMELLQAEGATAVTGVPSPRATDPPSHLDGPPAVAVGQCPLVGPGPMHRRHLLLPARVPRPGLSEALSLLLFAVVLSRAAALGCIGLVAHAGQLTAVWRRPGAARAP
Protocol: as §1

TSF1 = biological target: T9, TSF1 (Homo sapiens, UniProt O75716)
T9 construct: purchased Reaction Biology Europe GmbH (formerly ProQinase)
T9 sequence (O75716 whole entry): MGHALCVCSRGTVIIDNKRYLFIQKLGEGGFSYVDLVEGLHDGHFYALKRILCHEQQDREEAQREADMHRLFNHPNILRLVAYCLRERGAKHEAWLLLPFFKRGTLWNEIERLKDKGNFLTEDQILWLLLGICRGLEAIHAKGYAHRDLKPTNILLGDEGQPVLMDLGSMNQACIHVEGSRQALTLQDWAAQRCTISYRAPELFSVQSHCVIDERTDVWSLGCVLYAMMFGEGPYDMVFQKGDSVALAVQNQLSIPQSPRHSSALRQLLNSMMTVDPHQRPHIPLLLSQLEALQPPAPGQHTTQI
Protocol: as §1

p38α = biological target: T10, p38α (Homo sapiens, UniProt Q16539)
T10 construct: purchased Reaction Biology Europe GmbH (formerly ProQinase)
T10 sequence (Q16539 whole entry): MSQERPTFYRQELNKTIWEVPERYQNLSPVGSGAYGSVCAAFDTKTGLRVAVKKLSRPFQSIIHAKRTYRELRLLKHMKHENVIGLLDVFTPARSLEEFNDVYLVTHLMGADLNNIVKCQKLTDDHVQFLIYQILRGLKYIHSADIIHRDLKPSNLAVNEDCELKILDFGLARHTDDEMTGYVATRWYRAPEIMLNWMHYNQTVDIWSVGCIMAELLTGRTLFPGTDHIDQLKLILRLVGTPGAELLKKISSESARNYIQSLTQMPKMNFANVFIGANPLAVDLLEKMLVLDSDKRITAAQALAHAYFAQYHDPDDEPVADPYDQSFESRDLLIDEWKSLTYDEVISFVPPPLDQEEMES
Protocol: as §1

SYK = biological target: T11, SYK (Homo sapiens, UniProt P43405)
T11 construct: purchased Reaction Biology Europe GmbH (formerly ProQinase)
Protocol: as §1

Structure (SMILES) | residual kinase activity (MST2; 0.3 µM) | residual kinase activity (PKCΔ; 0.3 µM) | residual kinase activity (CDK1/CycE1; 0.3 µM) | residual kinase activity (PAK2; 0.3 µM) | residual kinase activity (LIMK1; 0.3 µM) | residual kinase activity (PKCη; 0.3 µM) | residual kinase activity (SNARK; 0.3 µM) | residual kinase activity (DMPK; 0.3 µM) | residual kinase activity (TSF1; 0.3 µM) | residual kinase activity (p38α; 0.3 µM) | residual kinase activity (SYK; 0.3 µM) | further results
COc1ccnc2[nH]cc(-c3cc(N)nc(N)c3)c12 [meriolin 16] | 77 % of control | 6 % of control | 8 % of control | 93 % of control | 3 % of control | 2 % of control | 64 % of control | 63 % of control | 104 % of control | 74 % of control | 84 % of control | residual kinase activity (MST2; 0.03 µM): 100 % of control; residual kinase activity (PKCΔ; 0.03 µM): 47 % of control; residual kinase activity (CDK1/CycE1; 0.03 µM): 42 % of control; residual kinase activity (PAK2; 0.03 µM): 92 % of control; residual kinase activity (LIMK1; 0.03 µM): 10 % of control; residual kinase activity (PKCη; 0.03 µM): 8 % of control; residual kinase activity (SNARK; 0.03 µM): 99 % of control; residual kinase activity (DMPK; 0.03 µM): 86 % of control; residual kinase activity (TSF1; 0.03 µM): 109 % of control; residual kinase activity (p38α; 0.03 µM): 94 % of control; residual kinase activity (SYK; 0.03 µM): 93 % of control
c1ccc(CNc2cc(-c3c[nH]c4ncccc34)ccn2)cc1 [meriolin 36] | 19 % of control | 4 % of control | 2 % of control | 71 % of control | 9 % of control | 2 % of control | 30 % of control | 3 % of control | 57 % of control | 78 % of control | 90 % of control | residual kinase activity (MST2; 3 µM): 4 % of control; residual kinase activity (PKCΔ; 3 µM): 0 % of control; residual kinase activity (CDK1/CycE1; 3 µM): 0 % of control; residual kinase activity (PAK2; 3 µM): 17 % of control; residual kinase activity (LIMK1; 3 µM): 1 % of control; residual kinase activity (PKCη; 3 µM): 2 % of control; residual kinase activity (SNARK; 3 µM): 5 % of control; residual kinase activity (DMPK; 3 µM): -2 % of control; residual kinase activity (TSF1; 3 µM): 8 % of control; residual kinase activity (p38α; 3 µM): 80 % of control; residual kinase activity (SYK; 3 µM): 64 % of control
